Results published in patent US7026281B1, “Antagonistic analogs of GH-RH inhibiting IGF-I and -II” (The Administrators of the Tulane Educational Fund, priority 1998, dated 2006).
Square brackets hold non-standard residues; d marks the D form. Peptide text beside a SMILES is read from it. * marks the point of attachment. Phe(4-Cl) = N[C@@H](Cc1ccc(Cl)cc1)C(=O)O; hArg = N=C(N)NCCCC[C@H](N)C(=O)O; X1 = O=C(Cc1c[nH]c2ccccc12)*; Nle = CCCC[C@H](N)C(=O)O; Abu = CC[C@H](N)C(=O)O; PhAc = O=C(Cc1ccccc1)*

What was measured:
[1] = test system: GH release stimulated by hGH-RH(1–29)NH2; assay: In vivo inhibition of serum GH response in rats; parameters: species or system rat
Method: GH-RH antagonistic effect of the analogs was tested on young male Sprague-Dawley rats (200–250 g). In each experiment, 5 groups of 7 animals each were used. The compounds (80 μg/kg) and GH-RH(1–29)NH2 (3 μg/kg) were dissolved in 5.5% mannitol and given intravenously to the jugular vein of the rats under Nembutal anesthesia. The time elapsed between the administrations of the antagonist and GH-RH varied between groups, according to the following schedule. The first group of animals received GH-RH injection 5 min after the administration of the antagonist; for the second, third and fourth group of animals, the time interval elapsed between the injection of the antagonist and that of GH-RH was 15, 30, and 60 min, respectively. The control group was first injected with the solvent alone instead of the antagonist, followed by a GH-RH injection 5 min later.
0.4 mL blood samples were taken for GH RIA before the administration of the antagonist (“blood0”), and 5 min after the injection of GH-RH (“blood1”). The GH response in each group was calculated as rGH=(GHblood1/GHblood0), mean±S.E.M. of the individual differences. Relative inhibition of GH response (%) in each group treated was calculated as […].

[2] = molecular target: T1, rat pituitary GH-RH receptors (Rattus norvegicus, UniProt Q02644); assay: GH-RH radioreceptor binding assay, rat anterior pituitary membrane homogenates; details: for Ki: competition with [His1,125I-Tyr10,Nle27]hGH-RH(1–32)NH2; for R.A. (relative affinity compared to Standard antagonist): ratio of Ki values
T1 construct: from tissue; host or cells: anterior pituitary of male Sprague-Dawley rats, crude membrane homogenates
T1 sequence (Q02644 23-464): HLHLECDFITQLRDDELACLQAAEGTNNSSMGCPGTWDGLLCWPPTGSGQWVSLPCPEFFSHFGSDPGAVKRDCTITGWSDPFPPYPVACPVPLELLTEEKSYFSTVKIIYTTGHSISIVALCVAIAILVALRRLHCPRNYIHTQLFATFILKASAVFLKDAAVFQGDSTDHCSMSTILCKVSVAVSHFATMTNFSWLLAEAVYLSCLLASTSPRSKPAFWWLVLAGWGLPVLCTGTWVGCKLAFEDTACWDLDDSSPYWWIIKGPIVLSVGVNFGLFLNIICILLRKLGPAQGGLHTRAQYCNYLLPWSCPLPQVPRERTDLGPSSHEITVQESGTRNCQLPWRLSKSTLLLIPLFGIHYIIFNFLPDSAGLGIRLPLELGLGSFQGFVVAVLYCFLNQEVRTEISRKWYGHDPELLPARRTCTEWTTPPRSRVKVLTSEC
Method: GH-RH Binding Assay. A sensitive radioreceptor binding assay was developed to determine the binding characteristics of the antagonists of GH-RH (G. Halmos, A. V. Schally et al., Receptor 3, 87–97, 1993), hereby incorporated by reference. The assay is based on binding of labelled [His^1,Nle^27]hGH-RH(1–32)NH2 to rat anterior pituitary membrane homogenates. Iodinated derivatives of [His^1,Nle^27]hGH-RH(1–32)NH2 are prepared by the chloramine-T method (F. C. Greenwood et al., Biochemistry 89:114–123, 1963), hereby incorporated by reference. Pituitaries from male Sprague-Dawley rats (250–300 g) are used to prepare crude membranes. For saturation binding analyses, membrane homogenates are incubated with at least 6 concentrations of [His^1,^125I-Tyr^10,Nle^27]hGH-RH(1–32) NH2, ranging from 0.005 to 0.35 nM in the presence or absence of excess unlabelled peptide (1 μM).
The pellet is counted for radioactivity in a γ-counter. The affinities of the antagonist peptides tested to rat pituitary GH-RH receptors are determined in competitive binding experiments. The final binding affinities are estimated by Ki (dissociation constant of the inhibitor-receptor complex) and are determined by the Ligand PC and McPherson computer programs of Munson and Rodbard (P. J. Munson and D. Rodbard, Anal. Biochem. 107. 220–239, 1980). Relative affinities compared to [Ac-Tyr^1,D-Arg^2]hGH-RH(1–29)NH2, the Standard antagonist, are calculated as the […].

[3] = test system: hGH-RH(1–29)NH2 induced GH release; assay: Inhibition of GH release in superfused rat pituitary system; format: cell-based; details: for Inhibition of GH release (%) 30 min: 1 nM hGH-RH(1–29)NH2 30 min later; for Inhibition of GH release (%) 60 min: 1 nM hGH-RH(1–29)NH2 60 min later; for Inhibition of GH release (%) 90 min: 1 nM hGH-RH(1–29)NH2 90 min later; for Inhibition of GH release (%) 120 min: 1 nM hGH-RH(1–29)NH2 120 min later; for Inhibition of GH release (%) 0 min: 1 nM hGH-RH(1–29)NH2 at 0 min
Method: Superfused Rat Pituitary System.
The analogs were tested in vitro in a test described earlier (S. Vigh and A. V. Schally, Peptides 5:241–347, 1984) with modification (Z. Rekasi and A. V. Schally, P.N.A.S. 90:2146–2149, 1993).
Briefly, the cells are preincubated with peptides for 9 minutes (3 mL) at various concentrations. Immediately after the incubation, 1 nM hGH-RH(1–29)NH2 is administered for 3 minutes (1 mL) [0 minute response]. To check the duration of the antagonistic effect of the analogue, 1 nM hGH-RH(1–29)NH2 is applied 30, 60, 90, and 120 minutes later for 3 minutes [30, 60, 90, 120 min responses]. Net integral values of the GH responses are evaluated. GH responses are compared to and expressed as percent of the original GH response induced by 1 nM GH-RH(1–29)NH2. The effect of the new antagonists are compared to that of [Ac-Tyr^1,D-Arg^2]hGH-RH(1–29)NH2, the “Standard antagonist”.
Growth Hormone Radio-immunoassay.
Rat GH levels in aliquots of undiluted and diluted superfusion samples were measured by double-antibody radioimmunoassay using materials supplied by the National Hormone and Pituitary Program, Baltimore, Md. The results of RIA were analyzed with a computer program developed in our institute (V. Csernus and A. V. Schally, in Neuroendocrine Research Methods, Harwood Academic (Greenstein, B. D. ed., London, pp. 71–109, 1991), hereby incorporated by reference. Inter-assay variation was less than 15% and intra-assay variation was less than 10%.

Structure (SMILES) | Inhibition of the GH release stimulated by hGH-RH(1–29)NH2 (in words) ([1]; 80 μg/kg i.v., rats) | Relative inhibition % of GH response ([1]; antagonist 80 μg/kg i.v. 5 min before GH-RH) [%] | Relative inhibition % of GH response ([1]; antagonist 80 μg/kg i.v. 15 min before GH-RH) [%] | GH response mean ± S.E.M. ([1]; antagonist 80 μg/kg i.v. 15 min before GH-RH 3 μg/kg) | Relative inhibition % of GH response ([1]; antagonist 80 μg/kg i.v. 30 min before GH-RH) [%] | GH response mean ± S.E.M. ([1]; antagonist 80 μg/kg i.v. 30 min before GH-RH 3 μg/kg) | Relative inhibition % of GH response ([1]; antagonist 80 μg/kg i.v. 60 min before GH-RH) [%] | GH response mean ± S.E.M. ([1]; antagonist 80 μg/kg i.v. 60 min before GH-RH 3 μg/kg) | GH response mean ± S.E.M. ([1]; rGH=GHblood1/GHblood0, antagonist 80 μg/kg i.v. 5 min before GH-RH 3 μg/kg) | Ki [2] [pM] | R.A. (relative affinity compared to Standard antagonist) [2] | Inhibition of GH release (%) 30 min ([3]; antagonist 30 nM) [%] | Inhibition of GH release (%) 60 min ([3]; antagonist 30 nM) [%] | Inhibition of GH release (%) 90 min ([3]; antagonist 30 nM) [%] | Inhibition of GH release (%) 120 min ([3]; antagonist 30 nM) [%] | Inhibition of GH release (%) 0 min ([3]; antagonist 30 nM) [%] | Inhibition of GH release (%) 30 min ([3]; antagonist 100 nM) [%] | Inhibition of GH release (%) 60 min ([3]; antagonist 100 nM) [%] | Inhibition of GH release (%) 0 min ([3]; antagonist 100 nM) [%]
CCCC[C@H](NC(=O)[C@@H](NC(=O)[C@H](CC(=O)O)NC(=O)[C@H](CCC(N)=O)NC(=O)[C@H](CC(C)C)NC(=O)[C@H](CC(C)C)NC(=O)[C@H](CCCCN)NC(=O)[C@H](CCCNC(=N)N)NC(=O)[C@H](C)NC(=O)[C@H](CO)NC(=O)[C@H](CC(C)C)NC(=O)[C@H](CCC(N)=O)NC(=O)[C@H](CC)NC(=O)[C@H](CC(C)C)NC(=O)[C@@H](NC(=O)[C@H](CCCCN)NC(=O)[C@H](CCCNC(=N)N)NC(=O)[C@H](Cc1ccc(O)cc1)NC(=O)[C@H](CCCNC(=N)N)NC(=O)[C@H](CC(N)=O)NC(=O)[C@@H](NC(=O)[C@H](Cc1ccc(Cl)cc1)NC(=O)[C@@H](NC(=O)[C@H](C)NC(=O)[C@H](CC(=O)O)NC(=O)[C@@H](CCCNC(=N)N)NC(=O)[C@H](Cc1ccc(O)cc1)NC(=O)Cc1c[nH]c2ccccc12)[C@@H](C)CC)[C@@H](C)O)C(C)C)[C@@H](C)CC)C(=O)N[C@H](CCCNC(=N)N)C(=O)N[C@@H](CCCCNC(=N)N)C(N)=O [Peptide 2, [IndAc^0, D-Arg^2, Phe(pCl)^6, Arg^9, Abu^15, Nle^27, D-Arg^28, Har^29]hGH-RH(1–29)NH2] (X1-Y[dR]DAI[Phe(4-Cl)]TNRYRKVL[Abu]QLSARKLLQDI[Nle][dR][hArg]-NH2) | strong and long-lasting inhibition | 91 | 45 | 3.45 ± 0.13 | 41 | 3.64 ± 0.71 | 2 | 5.41 ± 1.35 | 1.40 ± 0.29 | 46 | 64 | 100 | 100 | 100 | 91 | 100 |  |  | 
CCCC[C@H](NC(=O)[C@H](CC(N)=O)NC(=O)[C@@H](NC(=O)[C@H](Cc1ccc(Cl)cc1)NC(=O)[C@@H](NC(=O)[C@H](C)NC(=O)[C@H](CC(=O)O)NC(=O)[C@@H](CCCNC(=N)N)NC(=O)[C@H](Cc1ccc(O)cc1)NC(=O)Cc1ccccc1)[C@@H](C)CC)[C@@H](C)O)C(=O)N[C@@H](Cc1ccc(O)cc1)C(=O)N[C@@H](CCCNC(=N)N)C(=O)N[C@@H](CCCCN)C(=O)N[C@H](C(=O)N[C@@H](CC(C)C)C(=O)N[C@@H](CC)C(=O)N[C@@H](CCC(N)=O)C(=O)N[C@@H](CC(C)C)C(=O)N[C@@H](CO)C(=O)N[C@@H](C)C(=O)N[C@@H](CCCNC(=N)N)C(=O)N[C@@H](CCCCN)C(=O)N[C@@H](CC(C)C)C(=O)N[C@@H](CC(C)C)C(=O)N[C@@H](CCC(N)=O)C(=O)N[C@@H](CC(=O)O)C(=O)N[C@H](C(=O)N[C@@H](CCCC)C(=O)N[C@@H](CO)C(=O)N[C@H](CCCNC(=N)N)C(N)=O)[C@@H](C)CC)C(C)C [Peptide 12, [PhAc^0, D-Arg^2, Phe(pCl)^6, Nle^9, Abu^15, Nle^27, D-Arg^29]hGH-RH(1–29)NH2] (PhAc-Y[dR]DAI[Phe(4-Cl)]TN[Nle]YRKVL[Abu]QLSARKLLQDI[Nle]S[dR]-NH2) |  |  |  |  |  |  |  |  |  | 70 | 42 | 75 | 48 | 52 | 52 | 68 |  |  | 
CC[C@H](C)[C@H](NC(=O)[C@H](C)NC(=O)[C@H](CC(=O)O)NC(=O)[C@@H](CCCNC(=N)N)NC(=O)[C@H](Cc1ccc(O)cc1)NC(C)=O)C(=O)N[C@@H](Cc1ccccc1)C(=O)N[C@H](C(=O)N[C@@H](CC(N)=O)C(=O)N[C@@H](CO)C(=O)N[C@@H](Cc1ccc(O)cc1)C(=O)N[C@@H](CCCNC(=N)N)C(=O)N[C@@H](CCCCN)C(=O)N[C@H](C(=O)N[C@@H](CC(C)C)C(=O)NCC(=O)N[C@@H](CCC(N)=O)C(=O)N[C@@H](CC(C)C)C(=O)N[C@@H](CO)C(=O)N[C@@H](C)C(=O)N[C@@H](CCCNC(=N)N)C(=O)N[C@@H](CCCCN)C(=O)N[C@@H](CC(C)C)C(=O)N[C@@H](CC(C)C)C(=O)N[C@@H](CCC(N)=O)C(=O)N[C@@H](CC(=O)O)C(=O)N[C@H](C(=O)N[C@@H](CCSC)C(=O)N[C@@H](CO)C(=O)N[C@@H](CCCNC(=N)N)C(N)=O)[C@@H](C)CC)C(C)C)[C@@H](C)O [Standard antagonist, [Ac-Tyr^1,D-Arg^2]hGH-RH(1–29)NH2, reference compound] (Ac-Y[dR]DAIFTNSYRKVLGQLSARKLLQDIMSR-NH2) |  |  |  |  |  |  |  |  |  | 2940 | 1 |  |  |  |  |  | 2.5 | 19 | 62.1
